In this assay the test system is HCT116 MTAP-deleted cell lines. The assay is described as follows: Cell viability assay (CellTiter-Glo, 7 days), HCT116 MTAP-deleted. It is filed as cell-based. The following applies: Homo sapiens, HCT-116, HCT116 MTAP-deleted, class symbols, read-out: CC50. In short, it runs like this:
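PRMT5 inhibitors were serially diluted in DMSO and acoustically spotted as dose-response series into plates before cell seeding. Cells were grown with compound for 7 days at 37 °C, 5% CO2, 90% humidity, then viability was read by CellTiter-Glo luminescence and reported as CC50.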
On the technique in general: In ATP-based viability assays light output follows the ATP content of the culture.

Here are results for 30 compounds from patent publication US12448388B2, “PRMT5 inhibitors and uses thereof” (Gilead Sciences, Inc., priority 2023, dated 2025).

Read-outs that look alike come from different tables or passages of the source.

By CC50 is commonly meant the concentration giving 50% cytotoxicity. Take `CN(Cc1nc(-c2cnn(C(F)(F)F)c2)cs1)C(=O)c1cc2c(cc1F)nc(N)c1cncn12` [Ff-550, 4-amino-7-fluoro-N-methyl-N-((4-(1-(trifluoromethyl)-1H-pyrazol-4-yl)thiazol-2-yl)methyl)imidazo[1,5-a]quinoxaline-8-carboxamide]: the CC50 (cell viability assay) fell in the range of 100 to 1000 nM.

As for `C[C@H](C(N)=O)N(Cc1ccc(C(F)(F)F)cc1F)C(=O)c1cc2c(cc1F)nc(N)c1cncn12` [Ff-420, 4-amino-N-[(1R)-2-amino-1-methyl-2-oxo-ethyl]-7-fluoro-N-[[2-fluoro-4-(trifluoromethyl)phenyl]methyl]imidazo[1,5-a]quinoxaline-8-carboxamide], under “cell viability assay”, the CC50 lay within 100 to 1000 nM.

In the case of `CN(C(=O)c1cc2c(cc1F)nc(N)c1cncn12)[C@@H]1COc2cc(Cl)c(Cl)cc21` (single isomer, unassigned) [Ff-605], where the note is “cell viability assay”, the CC50 is below 100 nM.

For the compound `Cc1ncn2c1c(N)nc1cc(F)c(C(=O)N(C)[C@@H]3COCc4nc(C(F)(F)F)ccc43)cc12` [Ff-303, (S)-4-amino-7-fluoro-N,3-dimethyl-N-(2-(trifluoromethyl)-5,8-dihydro-6H-pyrano[3,4-b]pyridin-5-yl)imidazo[1,5-a]quinoxaline-8-carboxamide], for the setting “cell viability”, the CC50 is below 100 nM.

Take `Cc1ncc2c(N)nc3cnc(C(=O)N4CC[C@H]5C[C@@H]4c4ccc(C(F)(F)F)cc4O5)cc3n12` [Ff-369, (4-amino-1-methylimidazo[1,5-a]pyrido[3,4-e]pyrazin-8-yl)((2S,6R)-9-(trifluoromethyl)-3,4-dihydro-2H-2,6-methanobenzo[b][1,5]oxazocin-5(6H)-yl)methanone]: for the setting “cell viability assay”, the CC50 is below 100 nM.

As for `CN(C(=O)c1cc2c(cc1F)nc(N)c1cncn12)[C@@H]1COc2cc(C(F)(F)F)c(F)cc21` [Ff-503, (S)-4-amino-7-fluoro-N-(5-fluoro-6-(trifluoromethyl)-2,3-dihydrobenzofuran-3-yl)-N-methylimidazo[1,5-a]quinoxaline-8-carboxamide], the CC50 (cell viability assay) is below 100 nM.

For the compound `C[C@H]1CN(C(=O)c2cc3c(cc2F)nc(N)c2cncn23)[C@H]2c3cc(F)c(C(F)(F)F)cc3C[C@H]2O1` (single isomer, unassigned) [Ff-329], the CC50 (cell viability) was below 100 nM.

As for `CN(C(=O)c1ccc2nc(N)c3cncn3c2c1)C1CCc2nc(C(F)(F)F)ccc21` (stereo not drawn) [Ff-266, 4-amino-N-methyl-N-(2-(trifluoromethyl)-6,7-dihydro-5H-cyclopenta[b]pyridin-5-yl)imidazo[1,5-a]quinoxaline-8-carboxamide], the CC50 (cell viability) lay in the range of 100 to 1000 nM.

On to `Nc1nc2cc(F)c(C(=O)N3CCC[C@@H]4Oc5c(ccc(OC(F)(F)F)c5F)[C@@H]43)cc2n2cncc12` [Ff-343, (4-amino-7-fluoroimidazo[1,5-a]quinoxalin-8-yl)((4aS,9bS)-6-fluoro-7-(trifluoromethoxy)-3,4,4a,9b-tetrahydrobenzofuro[3,2-b]pyridin-1(2H)-yl)methanone], for which the CC50 (cell viability) was below 100 nM.

On to `Nc1nc2cc(Cl)c(C(=O)N3CC[C@H]4C[C@@H]3c3ccc(C(F)(F)F)cc3O4)cc2n2cncc12` [Ff-370, (4-amino-7-chloroimidazo[1,5-a]quinoxalin-8-yl)((2S,6R)-9-(trifluoromethyl)-3,4-dihydro-2H-2,6-methanobenzo[b][1,5]oxazocin-5(6H)-yl)methanone], for which the half-maximal cytotoxic concentration (CC50) (cell viability assay) was below 100 nM.

For `Nc1nc2cc(F)c(C(=O)N3CCC[C@@H]4Oc5cc(-c6cnn(C(F)(F)F)c6)ccc5[C@@H]43)cc2n2cncc12` [Ff-655, (4-amino-7-fluoroimidazo[1,5-a]quinoxalin-8-yl)((4aS,9bS)-7-(1-(trifluoromethyl)-1H-pyrazol-4-yl)-3,4,4a,9b-tetrahydrobenzofuro[3,2-b]pyridin-1(2H)-yl)methanone], for the setting “cell viability assay”, the CC50 is below 100 nM.

Consider `Nc1nc2cc(F)c(C(=O)N3CCO[C@H]4Cc5cc(C(F)(F)F)ccc5[C@H]43)cc2n2cncc12` (single isomer, unassigned) [Ff-83], for which the CC50 (cell viability) was 100 to 1000 nM.

Take `Nc1nc2cc(F)c(C(=O)N3C[C@H](F)CCC3c3ccc(C(F)(F)F)cn3)cc2n2cncc12` (mixture of isomers) [Ff-228, (4-amino-7-fluoroimidazo[1,5-a]quinoxalin-8-yl)((5R)-5-fluoro-2-(5-(trifluoromethyl)pyridin-2-yl)piperidin-1-yl)methanone]: the CC50 (cell viability) was below 100 nM.

Turning to `C[C@H]1CC2Oc3cc(C(F)(F)F)ccc3C2N(C(=O)c2cc3c(cn2)nc(N)c2cncn23)C1` (stereo partly drawn) [Ff-386, (4-aminoimidazo[1,5-a]pyrido[3,4-e]pyrazin-8-yl)((3S)-3-methyl-7-(trifluoromethyl)-3,4,4a,9b-tetrahydrobenzofuro[3,2-b]pyridin-1(2H)-yl)methanone], under “cell viability assay”, the CC50 was below 100 nM.

Regarding `Cc1ncc2c(N)nc3ccc(C(=O)N(C)Cc4cc5cc(C(F)(F)F)ccn5n4)cc3n12` [Ff-49, 4-amino-N,1-dimethyl-N-((5-(trifluoromethyl)pyrazolo[1,5-a]pyridin-2-yl)methyl)imidazo[1,5-a]quinoxaline-8-carboxamide], the CC50 (cell viability) was above 1000 nM.

As for `Nc1nc2cc(F)c(C(=O)N3CCO[C@@H]4Cc5cc(Br)ccc5[C@@H]43)cc2n2cncc12` (single isomer, unassigned) [Ff-76], the CC50 (cell viability) was below 100 nM.

On to `Cc1ncn2c1c(N)nc1cc(F)c(C(=O)N3CCC[C@@H]4Oc5cc(F)ccc5[C@@H]43)cc12` [Fg-26, (4-amino-7-fluoro-3-methylimidazo[1,5-a]quinoxalin-8-yl)((4aS,9bS)-7-fluoro-3,4,4a,9b-tetrahydrobenzofuro[3,2-b]pyridin-1(2H)-yl)methanone], for which the CC50 (cell viability assay) is below 100 nM.

Regarding `Nc1nc2cc(F)c(C(=O)N(Cc3ccc(C(F)(F)F)cc3F)c3cnn4c3CCC4)cc2n2cncc12` [Ff-285, 4-amino-N-(5,6-dihydro-4H-pyrrolo[1,2-b]pyrazol-3-yl)-7-fluoro-N-(2-fluoro-4-(trifluoromethyl)benzyl)imidazo[1,5-a]quinoxaline-8-carboxamide], the CC50 (cell viability) is below 100 nM.

For the compound `Nc1nc2cc(F)c(C(=O)N3CC[C@@H]4Oc5cc(C(F)(F)F)ccc5[C@@H]43)cc2n2cncc12` [Ff-66, (4-amino-7-fluoroimidazo[1,5-a]quinoxalin-8-yl)((3aS,8bS)-6-(trifluoromethyl)-2,3,3a,8b-tetrahydro-1H-benzofuro[3,2-b]pyrrol-1-yl)methanone], under “cell viability”, the CC50 is 100 to 1000 nM.

In the case of `Cc1ncn2c1c(N)nc1cc(F)c(C(=O)N3CCOC[C@@H]3c3ccc(C(F)(F)F)cc3)cc12` [Ff-137], the CC50 (cell viability) is below 100 nM.

`Nc1nc2cc(F)c(C(=O)N3CCC[C@@H]4Oc5cc(OC(F)(F)F)ccc5[C@@H]43)cc2n2cncc12` (racemic) [Ff-331, Rac-(4-amino-7-fluoroimidazo[1,5-a]quinoxalin-8-yl)((4aS,9bS)-7-(trifluoromethoxy)-3,4,4a,9b-tetrahydrobenzofuro[3,2-b]pyridin-1(2H)-yl)methanone]: the CC50 (cell viability) was below 100 nM.

With `Nc1nc2cc(F)c(C(=O)N3CCO[C@@H]4Cc5cc(OC(F)(F)F)ccc5[C@@H]43)cc2n2cncc12` [Ff-181, (4-amino-7-fluoroimidazo[1,5-a]quinoxalin-8-yl)((4aS,9aR)-7-(trifluoromethoxy)-2,3,9,9a-tetrahydroindeno[2,1-b][1,4]oxazin-4(4aH)-yl)methanone], the CC50 (cell viability) is below 100 nM.

On to `CN(C(=O)c1cc2c(cc1F)nc(N)c1cncn12)[C@H]1COc2cc(OC(F)(F)F)ccc21` (single isomer, unassigned) [Ff-558], for which, where the note is “cell viability assay”, the CC50 lay within 100 to 1000 nM.

With `CN(C(=O)c1ccc2nc(N)c3cncn3c2c1)[C@@H]1COc2cc(C#CC3(CF)CC3)ccc21` [Ff-520, (S)-4-amino-N-(6-((1-(fluoromethyl)cyclopropyl)ethynyl)-2,3-dihydrobenzofuran-3-yl)-N-methylimidazo[1,5-a]quinoxaline-8-carboxamide], for the setting “cell viability assay”, the CC50 lay within 100 to 1000 nM.

With `CO[C@@H]1COCC[C@H]1N(Cc1ccc(C(F)(F)F)cc1F)C(=O)c1cc2c(cc1F)nc(N)c1cncn12` [Ff-273, 4-amino-7-fluoro-N-(2-fluoro-4-(trifluoromethyl)benzyl)-N-((3S,4R)-3-methoxytetrahydro-2H-pyran-4-yl)imidazo[1,5-a]quinoxaline-8-carboxamide], under “cell viability”, the CC50 is below 100 nM.

In the case of `CS(=O)(=O)N1CCN(C(=O)c2cc3c(cc2F)nc(N)c2cncn23)C(c2ccc(C(F)(F)F)cn2)C1` (stereo not drawn) [Ff-135, (4-amino-7-fluoroimidazo[1,5-a]quinoxalin-8-yl)(4-(methylsulfonyl)-2-(5-(trifluoromethyl)pyridin-2-yl)piperazin-1-yl)methanone], the CC50 (cell viability) was in the range of 100 to 1000 nM.

For the compound `Nc1nc2cc(F)c(C(=O)N3CCC[C@@H]4Oc5cc(OC(F)(F)F)cc(F)c5[C@@H]43)cc2n2cncc12` (racemic) [Ff-350, Rac-(4-amino-7-fluoroimidazo[1,5-a]quinoxalin-8-yl)((4aS,9bS)-9-fluoro-7-(trifluoromethoxy)-3,4,4a,9b-tetrahydrobenzofuro[3,2-b]pyridin-1(2H)-yl)methanone], the CC50 (cell viability) was below 100 nM.

Consider `Nc1nc2cc(F)c(C(=O)N(Cc3ccc(-c4cnn(C(F)F)c4)cn3)C34CC(C3)C4)cc2n2cncc12` [Ff-212, 4-amino-N-(bicyclo[1.1.1]pentan-1-yl)-N-((5-(1-(difluoromethyl)-1H-pyrazol-4-yl)pyridin-2-yl)methyl)-7-fluoroimidazo[1,5-a]quinoxaline-8-carboxamide], for which the CC50 (cell viability) is below 100 nM.

On to `CN(C(=O)c1cc2c(cn1)nc(N)c1cncn12)[C@@H]1COc2cc(C(F)(F)F)ccc21` [Ff-342, (S)-4-amino-N-methyl-N-(6-(trifluoromethyl)-2,3-dihydrobenzofuran-3-yl)imidazo[1,5-a]pyrido[3,4-e]pyrazine-8-carboxamide], for which the CC50 (cell viability) was below 100 nM.

As to `COc1ccc2c(c1)CO[C@H]1CCN(C(=O)c3cc4c(cc3F)nc(N)c3cncn34)[C@@H]21` (racemic) [Ff-67, Rac-(4-amino-7-fluoroimidazo[1,5-a]quinoxalin-8-yl)((3aS,9bS)-7-methoxy-3,3a,5,9b-tetrahydroisochromeno[4,3-b]pyrrol-1(2H)-yl)methanone], the CC50 (cell viability) fell in the range of 100 to 1000 nM.
